Data reported in the supplement of paper PMC6045584.
± gives the standard deviation of the averaged measurements.

How the values were obtained:
[1] = compound: CC(=O)NCC(=O)N1[C@@H]2CC[C@H]1c1ccc(Nc3ncc(C(F)(F)F)c(NC4CCC4)n3)cc12; experiment: surviving fraction relative to DMSO-only wells; higher = less growth inhibition; conditions: exposure time: 5 days
Outline: (§1)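 Lines were retained only if, across three screens, replicate Pearson r was >0.7 and median Z' was >0.3. Viability was measured as CellTiter-Glo luminescence and reported as surviving fraction relative to the median of DMSO-only wells. Readings followed 10 minutes at room temperature, after log-phase tumour cells seeded at 250–500 per well in 384-well plates had been exposed, from 24 hours after seeding, continuously for five days to inhibitors at 0.5, 1, 5, 10, 50, 100, 500 and 1000 nM.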

[2] = compound: CC[C@@]1(O)C(=O)OCc2c1cc1n(c2=O)Cc2cc3ccccc3nc2-1 [CAMPTOTHECIN]; experiment: as above; conditions: exposure time: 5 days
Outline: as §1

Row | Test System | surviving fraction ([1]; 0.5 nM) | surviving fraction ([1]; 1 nM) | surviving fraction ([1]; 5 nM) | surviving fraction ([1]; 10 nM) | surviving fraction ([1]; 50 nM) | surviving fraction ([1]; 100 nM) | surviving fraction ([1]; 500 nM) | surviving fraction ([1]; 1000 nM) | surviving fraction ([2]; 0.5 nM) | surviving fraction ([2]; 1 nM) | surviving fraction ([2]; 5 nM) | surviving fraction ([2]; 10 nM) | surviving fraction ([2]; 50 nM) | surviving fraction ([2]; 100 nM) | surviving fraction ([2]; 500 nM) | surviving fraction ([2]; 1000 nM)
1 | HS578T BREAST | 1 ± 0.016 | 0.962 ± 0.088 | 0.918 ± 0.23 | 0.879 ± 0.027 | 0.866 ± 0.085 | 0.721 ± 0.081 | 0.592 ± 0.071 | 0.559 ± 0.11 | 0.811 ± 0.14 | 0.778 ± 0.18 | 0.729 ± 0.11 | 0.648 ± 0.091 | 0.464 ± 0.05 | 0.457 ± 0.054 | 0.228 ± 0.0098 | 0.212 ± 0.039
2 | BT20 BREAST | 1.03 ± 0.028 | 0.968 ± 0.062 | 1.02 ± 0.09 | 0.87 ± 0.051 | 0.365 ± 0.054 | 0.199 ± 0.038 | 0.293 ± 0.041 | 0.291 ± 0.055 | 0.764 ± 0.067 | 0.744 ± 0.088 | 0.492 ± 0.089 | 0.197 ± 0.015 | 0.096 ± 0.0052 | 0.0537 ± 0.0075 | 0.0213 ± 0.0015 | 0.0257 ± 0.0025
3 | SUM159 BREAST | 1.11 ± 0.22 | 1.08 ± 0.16 | 1.1 ± 0.21 | 1.07 ± 0.16 | 0.956 ± 0.085 | 0.72 ± 0.027 | 0.56 ± 0.014 | 0.436 ± 0.0095 | 0.915 ± 0.014 | 0.937 ± 0.015 | 0.793 ± 0.018 | 0.26 ± 0.0036 | 0.1303 ± 0.00058 | 0.0763 ± 0.0031 | 0.03 ± 0.001 | 0.0283 ± 0.00058
4 | SG27 HEADNECK | 1.04 ± 0.03 | 1.05 ± 0.042 | 0.868 ± 0.14 | 1.04 ± 0.079 | 0.948 ± 0.054 | 0.872 ± 0.043 | 0.843 ± 0.061 | 0.919 ± 0.05 | 0.702 ± 0.062 | 0.888 ± 0.19 | 0.867 ± 0.089 | 0.906 ± 0.021 | 0.724 ± 0.034 | 0.928 ± 0.096 | 0.482 ± 0.055 | 0.203 ± 0.025
5 | VCAP PROSTATE | 1.06 ± 0.051 | 1.05 ± 0.086 | 1.08 ± 0.11 | 0.935 ± 0.053 | 0.681 ± 0.075 | 0.603 ± 0.016 | 0.433 ± 0.021 | 0.327 ± 0.038 | 0.879 ± 0.094 | 0.902 ± 0.052 | 0.801 ± 0.1 | 0.508 ± 0.034 | 0.412 ± 0.028 | 0.4023 ± 0.0023 | 0.219 ± 0.034 | 0.158 ± 0.069
6 | HCC1806 BREAST | 0.995 ± 0.055 | 0.914 ± 0.11 | 1.14 ± 0.041 | 1.11 ± 0.031 | 0.658 ± 0.057 | 0.471 ± 0.042 | 0.583 ± 0.076 | 0.407 ± 0.04 | 0.717 ± 0.092 | 0.661 ± 0.046 | 0.269 ± 0.054 | 0.128 ± 0.015 | 0.074 ± 0.0056 | 0.044 ± 0.0017 | 0.0193 ± 0.00058 | 0.0223 ± 0.00058
7 | SAOS2 BONE | 1.03 ± 0.017 | 1.045 ± 0.0052 | 1.08 ± 0.069 | 1.06 ± 0.092 | 1.03 ± 0.065 | 0.704 ± 0.049 | 0.157 ± 0.0075 | 0.0957 ± 0.0029 | 0.794 ± 0.046 | 0.829 ± 0.024 | 0.677 ± 0.055 | 0.415 ± 0.018 | 0.129 ± 0.006 | 0.059 ± 0.005 | 0.0293 ± 0.0032 | 0.0267 ± 0.00058
8 | HS57T BREAST | 0.907 ± 0.056 | 0.894 ± 0.049 | 0.955 ± 0.0027 | 0.94 ± 0.044 | 0.633 ± 0.069 | 0.535 ± 0.025 | 0.443 ± 0.013 | 0.414 ± 0.019 | 0.826 ± 0.044 | 0.849 ± 0.041 | 0.79 ± 0.011 | 0.505 ± 0.031 | 0.192 ± 0.007 | 0.149 ± 0.0066 | 0.0707 ± 0.0025 | 0.0653 ± 0.0081
9 | SG43 HEADNECK | 1.01 ± 0.065 | 1.18 ± 0.26 | 0.8 ± 0.25 | 0.923 ± 0.17 | 0.703 ± 0.22 | 0.682 ± 0.093 | 0.579 ± 0.039 | 0.569 ± 0.069 | 1.16 ± 0.13 | 1.18 ± 0.2 | 1.01 ± 0.11 | 0.854 ± 0.18 | 0.624 ± 0.044 | 0.329 ± 0.04 | 0.256 ± 0.054 | 0.143 ± 0.037
10 | SIHA CERVIX | 0.799 ± 0.044 | 0.859 ± 0.034 | 0.933 ± 0.053 | 0.978 ± 0.042 | 1.01 ± 0.064 | 0.801 ± 0.046 | 0.631 ± 0.046 | 0.531 ± 0.034 | 0.822 ± 0.017 | 0.889 ± 0.024 | 0.857 ± 0.033 | 0.539 ± 0.1 | 0.44 ± 0.039 | 0.377 ± 0.0053 | 0.099 ± 0.0017 | 0.0593 ± 0.0023
11 | KPD BONE | 0.977 ± 0.019 | 0.987 ± 0.026 | 0.991 ± 0.07 | 1.04 ± 0.093 | 0.903 ± 0.003 | 0.737 ± 0.033 | 0.346 ± 0.009 | 0.124 ± 0.0044 | 0.886 ± 0.02 | 0.856 ± 0.041 | 0.509 ± 0.0098 | 0.327 ± 0.004 | 0.29 ± 0.015 | 0.15 ± 0.016 | 0.041 ± 0.0027 | 0.0363 ± 0.0045
12 | YAMATO SYNOVIAL | 1.06 ± 0.048 | 1.02 ± 0.049 | 1.1 ± 0.061 | 1.14 ± 0.058 | 0.994 ± 0.005 | 0.738 ± 0.023 | 0.622 ± 0.022 | 0.543 ± 0.058 | 0.118 ± 0.0092 | 0.562 ± 0.092 | 0.466 ± 0.035 | 0.479 ± 0.033 | 0.0957 ± 0.0085 | 0.247 ± 0.026 | 0.16 ± 0.0095 | 0.284 ± 0.028
13 | SCC003 HEADNECK | 0.911 ± 0.056 | 0.889 ± 0.096 | 1.05 ± 0.06 | 1.02 ± 0.027 | 0.988 ± 0.043 | 0.636 ± 0.063 | 0.425 ± 0.035 | 0.397 ± 0.076 | 0.817 ± 0.034 | 0.868 ± 0.085 | 0.849 ± 0.065 | 0.786 ± 0.094 | 0.361 ± 0.052 | 0.218 ± 0.029 | 0.07 ± 0.0061 | 0.054 ± 0.004
14 | CAL72 BONE | 1.06 ± 0.039 | 1.09 ± 0.051 | 1.12 ± 0.057 | 1.04 ± 0.011 | 0.917 ± 0.032 | 0.846 ± 0.022 | 0.571 ± 0.025 | 0.419 ± 0.026 | 0.985 ± 0.029 | 0.991 ± 0.021 | 0.955 ± 0.034 | 0.762 ± 0.12 | 0.18 ± 0.022 | 0.118 ± 0.011 | 0.0517 ± 0.0015 | 0.0597 ± 0.0011
15 | HCC1395 BREAST | 0.928 ± 0.15 | 1.05 ± 0.12 | 0.979 ± 0.062 | 1.04 ± 0.0025 | 0.962 ± 0.12 | 0.94 ± 0.13 | 0.991 ± 0.027 | 0.928 ± 0.092 | 0.71 ± 0.18 | 0.909 ± 0.071 | 0.788 ± 0.064 | 0.732 ± 0.044 | 0.627 ± 0.029 | 0.57 ± 0.086 | 0.421 ± 0.049 | 0.344 ± 0.09
16 | RDES SOFT TISSUE | 1.25 ± 0.15 | 1.26 ± 0.18 | 1.3 ± 0.047 | 1.3 ± 0.079 | 1.07 ± 0.17 | 0.245 ± 0.018 | 0.249 ± 0.025 | 0.195 ± 0.0049 | 0.776 ± 0.076 | 0.735 ± 0.1 | 0.027 ± 0.001 | 0.0233 ± 0.00058 | 0.0347 ± 0.0011 | 0.0297 ± 0.0015 | 0.0263 ± 0.0011 | 0.0357 ± 0.0011
17 | HCC38 BREAST | 1.19 ± 0.12 | 1.19 ± 0.3 | 0.952 ± 0.096 | 1.26 ± 0.31 | 0.747 ± 0.077 | 0.668 ± 0.051 | 0.594 ± 0.15 | 0.455 ± 0.062 | 0.946 ± 0.16 | 0.926 ± 0.15 | 0.563 ± 0.16 | 0.351 ± 0.12 | 0.0953 ± 0.0049 | 0.0423 ± 0.009 | 0.038 ± 0.0072 | 0.0387 ± 0.0025
